Results taken from PubChem BioAssay AID624258 (Broad Institute, 2012).
Calls of active or inactive are those of the source. The rule behind the calls is not given here.

Test system: S. cerevisiae SKN7-toxicity growth rescue, plate reader
Assay: Yeast SKN7 toxicity growth rescue counterscreen, Saccharomyces cerevisiae, plate reader, dose confirmatory (AID 624258);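 note: growth read after three days of incubation at 30 °C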

SMILES | AC40
COc1cccc2c1C(=O)c1c(O)c3c(c(O)c1C2=O)C[C@@](O)(C(=O)CO)C[C@@H]3O[C@H]1C[C@H](N)[C@H](O)[C@H](C)O1 | 6.21 µM
Cc1nnc(N/N=C/c2cccc(OCc3ccc(Cl)c(Cl)c3)c2)n1N | 3.28 µM
COC1=C(OC)C(=O)C(Sc2ccc3ccccc3c2)=CC1=O | 6.52 µM
Cc1nn(-c2nnc(NCc3ccccc3)nn2)c(C)c1Br | 6.94 µM
O=C(CSc1ccc(-c2ccccn2)nn1)NCc1ccccc1 | 7.08 µM
COc1ccc2c(c1)OC[C@H]1[C@H]2N2C(=O)c3cc(Cl)ccc3NC(=O)[C@@]2(C)[C@H]1c1ccccc1 | 10.8 µM
Cc1cc(-c2ccccc2)n(-c2cc(N/N=C/c3ccccc3O)ncn2)n1 | > 19.5 µM (inactive)
S=C(NCCCc1ccccc1)Nc1ccc(Br)cc1 | 4.26 µM
Oc1ccc(-c2nc3ccccc3s2)c(O)c1 | 0.726 µM
COc1ccc2c(c1)c1nnc(SC)nc1n2C | 2 µM
O=[N+]([O-])c1cc(Cl)ccc1Sc1ccccn1 | 17.3 µM
COc1ccc(NC(=O)/C(Cl)=C(/Cl)S(=O)(=O)Cc2ccc(C)cc2)cn1 | 1.24 µM
C/C(=N\NC(=S)NC1CCCCC1)c1c(F)cccc1F | 3.39 µM
CCCCC(=O)NC(c1ccc(OC)c(OC)c1)c1ccc2cccnc2c1O (configuration not stated) | 1 µM
O=C(Oc1cccc(NC(=O)c2ccccc2Cl)c1)c1ccc([N+](=O)[O-])cc1 | 14.1 µM
COC(=O)/C=C\C(=O)Nc1cccc([N+](=O)[O-])c1 | 2.17 µM
Cc1ccc(S(=O)(=O)N2CCOC23CCN(C(=O)c2cc(Cl)ccc2Cl)CC3)cc1 | 7.25 µM
Cc1cc(F)ccc1S(=O)(=O)N(C(=O)c1ccncc1)c1ccc(OC(=O)c2ccncc2)cc1 | 2.42 µM
O=C1c2ccccc2NC(c2ccc(-c3ccc(C(F)(F)F)cc3)o2)N1O (configuration not stated) | 1.71 µM
COc1cccc(CNC(=O)CSc2ccc(-c3ccccn3)nn2)c1 | 16.4 µM
CCc1ccc(NC(=O)CSc2ccc(-c3ccccn3)nn2)cc1 | 0.968 µM
Cc1ccc(-c2nc3ccc(Cl)cc3c(=O)n2O)cc1 | 0.914 µM
O=S(=O)(NCC1COc2ccccc2O1)c1ccc2ccccc2c1 (configuration not stated) | 8.68 µM
Cc1cc(C(=O)N/N=C/c2cc(Br)cc([N+](=O)[O-])c2O)c2ccccc2n1 | 1.27 µM

SMILES | AC40
Fc1ccc(CCNC(=S)Nc2ccc(F)c(Cl)c2)cc1 | 3.7 µM
O=[N+]([O-])c1ccc(-c2nc(-c3cccs3)c(-c3cccs3)[nH]2)cc1 | 4.72 µM
O=C(CCc1ccccc1)NNC(=S)NC(=O)c1ccccc1 | 0.923 µM
O=C(CSc1ccc(-c2ccccn2)nn1)c1ccccc1 | 1.22 µM
CCCCOc1ccc2c(c1)C(=O)c1cc(O)ccc1-2 | 1.93 µM
Cc1ccc(NC2(c3nnnn3-c3c(C)cccc3C)CCCCC2)cc1 | > 19.5 µM (inactive)
Cc1ccc(C(=O)Sc2cccccc2=O)cc1 | 0.322 µM
COc1ccc(-c2csc(NC(=O)c3ccccc3F)c2C(=O)O)cc1 | 0.644 µM
CCOC(=O)c1c(C)oc2c1C(=O)c1ccccc1C2=O | 2.28 µM
c1ccc(Nc2cccc(Nc3ccccc3)c2)cc1 | 0.766 µM
CCOC(=O)c1c(-c2ccccc2)oc2ccc(O)cc12 | 10.4 µM
c1c[nH]c(CN2CCN(Cc3ncc[nH]3)CC2)n1 | 1.7 µM
CCCOc1ccc(C(=O)NNC(=S)NC(=O)CC)cc1 | 1.48 µM
Cc1cccc(C(=O)NC(=S)NNC(=O)Cc2ccccc2)c1 | 1.22 µM
CN(C1=C(NC(=O)c2ccc(Cl)cc2)C(=O)c2ccccc2C1=O)c1ccccc1 | 4.87 µM
Cn1cnc([N+](=O)[O-])c1S(=O)(=O)Oc1ccc(Cl)cc1 | 1.31 µM
CCS(=O)(=O)c1ccc(N=Nc2ccc(O)c3ncccc23)c(OC)c1 | 3.56 µM
Cc1nc2ccc(NC(=O)COc3cccc(F)c3)cc2s1 | 1.43 µM
COc1ccc(N2C(=O)C(Cl)=C(Nc3ccccc3O)C2=O)cc1 | 4.9 µM
Cc1ccc(C)c(S(=O)(=O)N2CCN(Cc3ccc(O)c4ncccc34)CC2)c1 | 5.93 µM
COC(=O)c1ccc(N2C(=O)CC(N(C)CCc3ccc(OC)c(OC)c3)C2=O)cc1 (configuration not stated) | 8.6 µM
O=C(N/N=C/c1c(O)n(Cc2ccccc2)c(=O)c2ccccc12)c1cccnc1 | 1.01 µM
COc1cccc(C(=O)N/N=C(/c2ccccc2)c2ccccn2)c1 | 3.84 µM
CCOc1ccc(/C=C2/SC(=O)NC2=S)cc1 | 1.24 µM

SMILES | AC40
CC1CCc2sc(-c3n[nH]c(=S)o3)cc2C1 (configuration not stated) | 0.663 µM
COc1cccc(/C=N/Nc2ncnc(Cl)c2N)c1O | 3.72 µM
Oc1cc(Nc2ccccc2)cc2cccnc12 | 3.81 µM
CCCCNC1=CC(=O)C(=O)c2ccccc21 | 17.5 µM
CCCCCCCCNC(=O)/C(C#N)=C/c1ccccc1[N+](=O)[O-] | 3.17 µM
CSC(=S)N/N=C/c1ccccc1 | 3.19 µM
CCOc1ccc(-n2c(O)c(/C=N/NC(=O)C3COc4ccccc4O3)c3ccccc3c2=O)cc1 (configuration not stated) | 2.18 µM
CC(=O)Nc1ccc2c(c1)Cc1cc(N3C(=O)C=CC3=O)ccc1-2 | 0.236 µM
Clc1cccc(CON/C=N/c2ncnc3sccc23)c1 | 3.8 µM
Cc1ccc(CN=Cc2[nH]c3ccc(Br)c(Cl)c3c2O)cc1 | 9.03 µM
Oc1c(C(Nc2cccc(C(F)(F)F)c2)c2cccnc2)ccc2cccnc12 (configuration not stated) | 2.73 µM
Cc1onc(-c2c(Cl)cccc2Cl)c1C(=O)N/N=C(\N)COc1ccc(Cl)cc1 | 2.55 µM
Cc1nn(CCO)c(N)c1C1(O)C(=O)Nc2c(Cl)cc(Cl)cc21 (configuration not stated) | 18.5 µM
CCOC(=O)c1ccc(NC(=O)CC2C(=O)OCCN2CC)cc1 (configuration not stated) | 4.89 µM
CCCNC(=O)c1ccc2c(=O)c(O)c(-c3ccc(F)cc3)[nH]c2c1 | 2.31 µM
COc1cccc(/C=N/Nc2ncc(C(F)(F)F)cc2Cl)c1O | 1.11 µM
CCOC(=O)CSC1=NC(=O)/C(=C\c2ccc(Cl)cc2)S1 | 6.09 µM
Cc1ccc(COc2ccc(Br)cc2/C=N/O)cc1 | 1.27 µM
CCOC(=O)c1ccc(N2C(=O)CC(N(C)CCc3ccc(OC)c(OC)c3)C2=O)cc1 (configuration not stated) | 4.82 µM
O=C(CSc1ccc(-c2ccccn2)nn1)N1CCc2ccccc21 | 10.2 µM
CCCc1cc(-c2n[nH]c(=S)n2-c2cccc(C)c2)cs1 | 17 µM
Cc1ccc(-c2nn(C(C)(C)C)c3ncnc(N)c23)cc1 | 9.29 µM
O=C(C1CC2C=CC1C2)N1CCN(c2ccccc2)CC1 (configuration not stated) | 3.11 µM
O=S(=O)(Nc1nc2ccccc2nc1N1CCN(c2ccccn2)CC1)c1ccc(Cl)cc1 | 0.818 µM

SMILES | AC40
Cc1ccc(NC2=CC(=O)C(=O)c3ccccc32)c(C)c1 | 18.7 µM
COC1=CC(=O)c2c(ccc3ncnc(N)c23)C1=O | 10.1 µM
CC(=O)c1c(C)oc2c1C(=O)c1ccccc1C2=O | 1.92 µM
CC(C)(c1cc(Br)c(O)c(Br)c1)c1cc(Br)c(O)c(Br)c1 | 1.26 µM
O=C(/C=C/c1ccccc1)c1cc(Br)ccc(=O)c1O | 2.08 µM
C(=N\Nc1nncc2ccccc12)/c1ccccn1 | 3.27 µM
C[C@]12CCC3C(CC[C@H]4C[C@@H](O)CC[C@]34C)C1CC[C@@H]2OC(=O)[C@H](N)CCCCN (some centres not stated) | 11 µM
Cc1ccc(Sc2ccc([N+](=O)[O-])cc2[N+](=O)[O-])nc1 | 10.1 µM
CCc1nc2ccccc2c(=O)n1NC(=O)c1c(O)c2ccccc2n(CC)c1=O | 2.09 µM
Cc1c2cnccc2c(C)c2c1oc1ccccc12 | 2.99 µM
N=c1c2c(-c3ccccc3)c(-c3ccccc3)n(Cc3ccco3)c2ncn1CCCn1ccnc1 | 2.92 µM
C[C@H](O)[C@H]1CC[C@H]2[C@@H]3CCC4=CC(=O)CC[C@]4(C)[C@H]3CC[C@]12C | 2.05 µM
COc1ccc(-c2sc3ccccc3c2C#Cc2cncn2C)cc1 | 1.24 µM
COc1cccc(/C=N/NC(=O)c2cc(-c3cccn3C)n[nH]2)c1O | 5.62 µM
CSc1nccc(NC(=O)c2ccc(C(C)(C)C)cc2)n1 | 7.82 µM
O=[N+]([O-])c1cccc(-c2cc(-c3cc(Br)ccc3O)[nH]n2)c1 | 8.39 µM
O=C(NCC1CC1(Cl)Cl)Nc1ccc(Cl)c(Cl)c1 (configuration not stated) | > 6.8 µM (inactive)
O=C1c2ccccc2C(=O)c2c1oc(C(F)(F)F)c2C(=O)c1ccccc1 | 2.6 µM
Cc1ccc(CNC(=O)C2COc3ccccc3O2)cc1 (configuration not stated) | 17.7 µM
CC(/C=N/n1c(COc2ccccc2)n[nH]c1=S)=C\c1ccccc1 | > 19.5 µM (inactive)
O=C(Oc1cccc(C(=S)N2CCOCC2)c1)c1ccc([N+](=O)[O-])cc1[N+](=O)[O-] | 16.4 µM
Cc1cc(C)c(C(N)=O)c(Nc2cccc3ccccc23)n1 | > 19.5 µM (inactive)
Cc1ccc(Nc2c(-c3ccccc3O)nc3cnccn23)cc1 | 8.08 µM
O=c1nc(N/N=C/c2ccccn2)cn[nH]1 | 4.69 µM

SMILES | AC40
CC(C)(C)c1ccc(Oc2ccc(N)cc2)cc1 | 1.95 µM
O=C1c2ccccc2NC(c2ccc(-c3cccc([N+](=O)[O-])c3)o2)N1O (configuration not stated) | 4.74 µM
O=C(COC(=O)c1ccc([N+](=O)[O-])o1)NCc1ccc(F)cc1 | 6.69 µM
CCc1oc2ccccc2c1C(=O)c1cc(Br)c(O)c(Br)c1 | 0.912 µM
COc1cc2c(cc1/C=C/[N+](=O)[O-])OCO2 | 6.54 µM
CC1S/C(=C(\C#N)C(=O)NCc2ccco2)N(Cc2ccco2)C1=O (configuration not stated) | > 19.5 µM (inactive)
Cc1ccnc(N2C(=O)c3cccc4c([N+](=O)[O-])ccc(c34)C2=O)c1 | 0.166 µM
O/C(=C\c1nc2ccccc2nc1/C=C(\O)c1ccccc1)c1ccccc1 | 4.59 µM
COc1ccccc1N(C)S(=O)(=O)c1ccc(Cl)c(C(=O)NNC(=O)c2ccccc2O)c1 | 1.95 µM
O=C(O)c1ccccc1NS(=O)(=O)c1cccc(-n2sc3ccccc3c2=O)c1 | 4.77 µM
O=c1[nH]cc(F)c(=O)[nH]1 | 9.32 µM
COc1cc2c(c(OC)c1OC)-c1ccc(O)c(=O)cc1[C@@H](N)CC2 | 0.936 µM
CCN=c1scc(C)n1/N=C/c1ccc(O)c(O)c1O | 7.51 µM
CN(C)c1ccc(-n2cccc2/C=C/[N+](=O)[O-])cc1 | 1.16 µM
Cc1onc(-c2ccccc2)c1C(=O)OCc1nnc(-c2ccc([N+](=O)[O-])cc2)o1 | 2.27 µM
Oc1ccccc1-c1nnc(SCCN2CCOCC2)n1Cc1ccccc1 | 9.94 µM
CNc1ccc(C=C2C=Cc3ccccc32)cc1 | 0.998 µM
COc1ccc2c(c1)S/C(=C\C(=O)c1ccncc1)N2C | 1.76 µM
Cc1csc(NC(=S)Nc2cccc(Cl)c2)n1 | 11.6 µM
Cc1nn(-c2nnc(NC3CCCCC3)nn2)c(C)c1Br | 6.48 µM
O=c1c(Cl)c(Cl)cnn1Cc1nnc(-c2ccc(Cl)cc2)o1 | 7.97 µM
